Measured values: PMC3720542, “Population pharmacokinetics of mefloquine, piperaquine and artemether-lumefantrine in Cambodian and Tanzanian malaria patients” (Malaria Journal, 2013)
Several values for one entry are separate records, joined by “and”; a condition that tells them apart may be missing. Equal values may be shown once. Read-outs that look alike come from different tables or passages of the source. Marks after values point to notes of the source that are not given here.

How the values were obtained:
[1] = Population pharmacokinetic analysis (NONMEM) of artemether-lumefantrine and metabolites in Tanzanian malaria patients (Kibaoni); assay type: in vivo, human
Experimental: Three studies have been conducted, one in Tanzania and two in Cambodia. The study profiles are described in Figure 1. The first study was performed during March to May 2008 at the Kibaoni Health Centre, Kilombero district, Morogoro region, Tanzania. […] Six AM-LF (Coartem®, Novartis Pharma, Switzerland) doses were administered at time 0, 8, […] according to body weight (see Table 1); patients were either admitted for three days or asked to come back to the health facility for each drug administration. Mothers of breastfed patients were encouraged to feed their children and patients admitted were provided with food. Patients who reported that they have not eaten within two hours to prior dose intake were instructed to eat as soon as possible. Patients were seen by the clinical officer on days 0, 1, 2, 3, 7, 14, 28, and 42. A blood sample for pharmacokinetic measurement was taken at baseline (pre-dose on day 0) and on days 1, 2, and 7 at pre-defined random times after the last dosing. At each visit, a filter paper sample and a thin and thick smear were taken, in addition to axillary temperature, respiratory rate and haemoglobin measurements (only on days 0, 28 and 42) as well as evaluation of symptoms (e.g. headache, vomiting, and diarrhea). The exact dose and time of last drug intake, body weight, height, age, sex, food intake and concomitant medications were carefully recorded. If patients suffered from concomitant illnesses they were provided with additional treatment (paracetamol, mebendazole, metronidazole, cloxacillin, amoxicillin). Samples of 2 ml of venous blood were collected on an EDTA Vacutainer and kept on ice for no longer than 6 h after withdrawal and then aliquoted into whole blood, plasma and pellet and immediately stored in liquid nitrogen or a -80°C freezer. […] The laboratory is part of the quality control system of the World-Wide Antimalarial Resistance Network (WWARN). The pharmacokinetic analysis for each drug taken separately was performed using the NONMEM computer program Version 6 (NM-TRAN version II). It uses mixed (fixed and random) effects regression to estimate population means and variances of the pharmacokinetic parameters and to identify factors that influence them. One-, two- and three-compartment pharmacokinetic models with first-order absorption, with and without absorption lag times, were compared. Additional one or two-compartments were used for anti-malarials presenting metabolite concentrations (AM and LF). The final parameters estimated were systemic clearance (CL/F), inter-compartmental clearance (Q/F), central volume of distribution (VC/F), peripheral volume of distribution (VP/F) and absorption rate constant (ka). Since no intravenous drug concentration data were available, these parameters represent apparent values. Where available, metabolite data were included into the model and metabolism rate constant from drug compartment to metabolite compartment (k23) and metabolite clearance (CLmet) were also estimated. Owing to identifiability problems, the volume of distribution of the metabolites (VM) DLF and DHA were assumed to equal LF and AM VC, respectively. […] The observed baseline residual plasma concentrations were fitted by estimating a factor (F0) that provided an estimation of the residual doses from previous treatment. […] Proportional and combined proportional-and-additive error models were compared to describe intra-patient (residual) variability for the mother compound, and if available for its metabolite using Cpij(1 + ε1ij) + ε2ij or Cmij(1 + ε3ij) + ε4ij, where Cpij are the corresponding predicted i^th drug plasma concentration and Cmij are the predicted metabolite concentration for the j^th individual, and ε1ij, ε2ij, ε3ij, ε4ij, are independent normally distributed residual error terms with a mean of zero and a variance of σ^2_1, σ^2_2, σ^2_3, σ^2_4. The covariate analysis was performed using a stepwise insertion/deletion approach. […]

[2] = cited from earlier work
malaria = test system: malaria; parameters: method as in earlier work; settings: listed as LF, cited from earlier work
[3] = Population pharmacokinetic analysis (NONMEM) of piperaquine in Cambodian malaria patients (Pramoy, DHA-PPQ); assay type: in vivo, human
Experimental: The third study was performed during July to October 2008 at Pramoy Health Centre, Veal Veng district, Pursat province, Cambodia. A total of 287 suspected malaria cases were screened by microscopy, of whom 82 (29%) were infected with P. falciparum and 50 (17%) with P. vivax (no mixed infections). Children younger than six years of age and pregnant or lactating women were excluded. Three doses of DHA-PPQ (Duo-Cotecxin®, Zhejiang Holley Nanhu Pharmaceutical Co., Ltd, China) were given according to age (as per national guidelines) on three consecutive days (see Table 1). Same follow-up and blood sampling as at Phnom Dék were performed.
Samples of 2 ml of venous blood were collected on an EDTA Vacutainer and kept on ice for no longer than 6 h after withdrawal and then aliquoted into whole blood, plasma and pellet and immediately stored in liquid nitrogen or a –80°C freezer. […] The method was validated according to FDA recommendations, including assessment of extraction yield, matrix effect variability, overall process efficiency, standard addition experiments as well as anti-malarials short- and long-term stability in plasma. […] The laboratory is part of the quality control system of the World-Wide Antimalarial Resistance Network (WWARN).
The pharmacokinetic analysis for each drug taken separately was performed using the NONMEM computer program Version 6 (NM-TRAN version II). It uses mixed (fixed and random) effects regression to estimate population means and variances of the pharmacokinetic parameters and to identify factors that influence them.
One-, two- and three-compartment pharmacokinetic models with first-order absorption, with and without absorption lag times, were compared. Additional one or two-compartments were used for anti-malarials presenting metabolite concentrations (AM and LF). The final parameters estimated were systemic clearance (CL/F), inter-compartmental clearance (Q/F), central volume of distribution (VC/F), peripheral volume of distribution (VP/F) and absorption rate constant (ka). Since no intravenous drug concentration data were available, these parameters represent apparent values. Where available, metabolite data were included into the model and metabolism rate constant from drug compartment to metabolite compartment (k23) and metabolite clearance (CLmet) were also estimated. Owing to identifiability problems, the volume of distribution of the metabolites (VM) DLF and DHA were assumed to equal LF and AM VC, respectively. […] The observed baseline residual plasma concentrations were fitted by estimating a factor (F0) that provided an estimation of the residual doses from previous treatment.
Exponential errors following a log-normal distribution were assumed for the description of inter-patient variability of the pharmacokinetic parameters and were of the form: θi=θ×e^ηj where θi is the individual pharmacokinetic parameter value in the j^th individual, θ is the population parameter estimate, and ηj is the random effect value, which is independently and normally distributed with a mean of 0 and variance ω^2. Proportional and combined proportional-and-additive error models were compared to describe intra-patient (residual) variability for the mother compound, and if available for its metabolite using Cpij(1 + ϵ1ij) + ϵ2ij or Cmij(1 + ϵ3ij) + ϵ4ij, where Cpij are the corresponding predicted i^th drug plasma concentration and Cmij are the predicted metabolite concentration for the j^th individual, and ϵ1ij, ϵ2ij, ϵ3ij, ϵ4ij, are independent normally distributed residual error terms with a mean of zero and a variance of σ^2_1, σ^2_2, σ^2_3, σ^2_4.
The covariate analysis was performed using a stepwise insertion/deletion approach. Visual inspection of the correlation between post hoc individual estimates of the pharmacokinetic parameters and the available covariates was first conducted by graphical exploration. […]

[4] = bootstrap evaluation, 200 replicates
[5] = patients, age 7.7 ± 1.4 years, n 13, sampling 28 days
[6] = patients, median age 4.0 (1–10) years, n 50, sampling 72 h
[7] = patients, median age 20 (5–66) years, n 309
[8] = patients, median age 22 (14–60) years, n 217
[9] = patients, median age 23 (13–59) years, n 102
[10] = pregnant women, median age 24 (15–42) years, n 103, sampling 336 h
[11] = non-pregnant women, median age 27.5 (18–45) years, n 24, sampling 84 days
[12] = patients, median age 6 (2–10) years, n 236, sampling 42 days
[13] = pregnant women, median age 25 (18–43) years, n 24, sampling 84 days

SMILES: CCCCN(CCCC)CC(O)c1cc(Cl)cc2c1-c1ccc(Cl)cc1/C2=C/c1ccc(Cl)cc1 (stereo not drawn) [Lumefantrine, lumefantrine]
- patients with a concentration below the cut-off value of 175 ng/ml ([1]; Tanzanian sample of this study, day 7): 35%
- F0, bootstrap mean of 200 [1, 4]: 2.45 mg
- k23, bootstrap mean of 200 [1, 4]: 0.00037 h⁻¹
- ka, bootstrap mean of 200 [1, 4]: 0.48 h⁻¹
- θBWCL, bootstrap mean of 200 [1, 4]: 0.51
- θBWVC, bootstrap mean of 200 [1, 4]: 0.34
- σC (CV%), bootstrap mean of 200 [1, 4]: 61%
- IIV (inter-individual variability) of CL ([1]; final model): 38%
- IIV (inter-individual variability) of F0 ([1]; final model): 103%
- IIV (inter-individual variability) of VC ([1]; final model): 33%
- IIV (inter-individual variability) of k23 ([1]; final model): 38%
- ka (first-order absorption rate constant), population estimate ([1]; final model): 0.54 h⁻¹
- θBWVC, exponent of allometric power function of body weight on VC, population estimate ([1]; final model): 0.35
- F0 (residual amount from the previous treatment), population estimate ([1]; final model, baseline): 2.53 mg
- σC (CV%), residual error for the central compartment, population estimate ([1]; final model, intra-patient variability): 60%
- k23 (metabolism rate constant), population estimate ([1]; final model, parent to metabolite (AM to DHA, LF to DLF)): 0.00037 h⁻¹
- residual dose (F0) as percentage of the recommended first dose ([1]; first dose 120–480 mg): 0.3–1.3%
- clearance ([1]; human, plasma, oral, present study, Tanzanian patients, sampling 7 days): 128 mL/min
- Vd ([1]; human, plasma, oral, present study, Tanzanian patients, sampling 7 days, read-out: VSS (steady-state volume of distribution), population estimate for a person of 70 kg): 265 L
- CL, population estimate for a person of 70 kg [2, 5]: 7.29 L/h
- VSS, population estimate for a person of 70 kg [2, 5]: 506 L
- CL, population estimate for a person of 70 kg [2, 6]: 5.4 L/h
- VSS, population estimate for a person of 70 kg [2, 6]: 623 L
- CL, population estimate for a person of 70 kg [2, 7]: 7.6 L/h
- VSS, population estimate for a person of 70 kg [2, 7]: 361 L
- CL, population estimate for a person of 70 kg [2, 8]: 21 L/h
- VSS, population estimate for a person of 70 kg [2, 8]: 301 L
- CL, population estimate for a person of 70 kg [2, 9]: 7 L/h
- VSS, population estimate for a person of 70 kg [2, 9]: 298 L
- CL, population estimate for a person of 70 kg [2, 10]: 8.7 L/h
- VSS, population estimate for a person of 70 kg [2, 10]: 257 L
- efficacy rates at 42 days for a day 7 concentration cut-off of 50 ng/ml (malaria; high transmission areas): 80% and 95%
- efficacy rates at 42 days for a day 7 concentration cut-off of 125 ng/ml (malaria; low transmission areas): 84% and 96%

SMILES: Clc1ccc2c(N3CCN(CCCN4CCN(c5ccnc6cc(Cl)ccc56)CC4)CC3)ccnc2c1 [Piperaquine, piperaquine]
- F0, bootstrap mean of 200 [3, 4]: 125 mg
- Q, bootstrap mean of 200 [3, 4]: 126 L/h
- VP, bootstrap mean of 200 [3, 4]: 20,053 L
- ka, bootstrap mean of 200 [3, 4]: 1.00 h⁻¹
- σC, bootstrap mean of 200 ([3]; bootstrap evaluation, 200 replicates, listed as head prints [μmolL^-1]): 41%
- IIV (inter-individual variability) of CL ([3]; final model): 45%
- IIV (inter-individual variability) of VC ([3]; final model): 65%
- IIV (inter-individual variability) of VP ([3]; final model): 50%
- ka (first-order absorption rate constant), population estimate ([3]; final model): 0.93 h⁻¹
- F0 (residual amount from the previous treatment), population estimate ([3]; final model, baseline): 123 mg
- clearance ([3]; human, plasma, oral, present study, 60 patients, sampling 14 days): 1820 mL/min
- Vd ([3]; human, plasma, oral, present study, 60 patients, sampling 14 days, read-out: VSS, population estimate for a person of 70 kg): 42800 L
- residual dose (F0) as percentage of an initial dose ([3]; initial dose 480–960 mg): 12.8–25.6%
- CL, population estimate for a person of 70 kg [2, 11]: 92 L/h
- VSS, population estimate for a person of 70 kg [2, 11]: 58,030 L
- CL, population estimate ([2]; patients, age 3–55 years, n 98, sampling 63 days): 98^h L/h
- VSS, population estimate ([2]; patients, age 3–55 years, n 98, sampling 63 days, for a patient with a median body weight of 48 kg): 61,180^i L
- CL, population estimate for a person of 70 kg [2, 12]: 29 L/h
- VSS, population estimate for a person of 70 kg [2, 12]: 14,972 L
- CL, population estimate for a person of 70 kg [2, 13]: 90 L/h
- VSS, population estimate for a person of 70 kg [2, 13]: 37,030 L
